The test system of data set [1] is Candida albicans. Nature of the data set: Induction of morphological changes in Candida albicans ATCC SC5314 assessed as fungal cells with irregular shrunken characteristics measured after 48 to 72 hrs by transmission electron microscopy. In kind it is functional, organism-based. The conditions noted are these: time 48-72 hrs.
Data set [2] is described as follows: Toxicity in mouse infected with Candida albicans assessed as morphological changes in kidney at 20 mg/kg, ip administered on days 2,4,6,8,10,12 and measured on day 14 by hematoxyin-eosin staining based analysis. In kind it is organism-based. Conditions: in vivo, 312 h, time 13 day.
Data set [3] deals with Mus musculus. Nature of the data set: Immunomodulatory activity in mouse infected with Candida albicans assessed as increase in expression intensity of CD3+ T cells in spleen at 20 mg/kg, ip administered on days 2,4,6,8,10,12 and measured on day 14 by immunohistochemical staining analysis relative to fluconazole. Type of data set: functional, T-cell. The conditions noted are these: time 13 day.

Data set [4] relates to Candida albicans. Nature of the data set: Induction of morphological changes in Candida albicans ATCC SC5314 assessed as fungal cells with edema, cavitation, nuclear enrichment, accumulation of low density granular materials measured after 48 to 72 hrs by transmission electron microscopy. In kind it is functional, organism-based. Conditions: time 48-72 hrs.
Data set [5] is described as follows: Toxicity in mouse infected with Candida albicans assessed as morphological changes in liver at 20 mg/kg, ip administered on days 2,4,6,8,10,12 and measured on day 14 by hematoxyin-eosin staining based analysis. In kind it is organism-based. Conditions: in vivo, 312 h, time 13 day.
Data set [6] relates to Candida albicans. Nature of the data set: Induction of morphological changes in Candida albicans ATCC SC5314 assessed as disintegration of fungal cell membrane and cell wall measured after 96 hrs by transmission electron microscopy. In kind it is functional, organism-based.
The subject of data set [7] is Candida albicans. Nature of the data set: Induction of morphological changes in Candida albicans ATCC SC5314 assessed as rupturing of marginal regions measured after 96 hrs by transmission electron microscopy. In kind it is functional, organism-based.
The test system of data set [8] is Candida albicans. Nature of the data set: Induction of morphological changes in Candida albicans ATCC SC5314 assessed as exudation of fungal cell contents to the external region measured after 96 hrs by transmission electron microscopy. Type of data set: functional, organism-based.
In data set [9] the test system is Candida albicans. Nature of the data set: Induction of morphological changes in Candida albicans ATCC SC5314 assessed as reduction in fungal cell thickness measured after 48 to 72 hrs by transmission electron microscopy. Type of data set: functional, organism-based. Conditions: time 48-72 hrs.
Data set [10] has as its system Cryptococcus neoformans. Nature of the data set: Increase in intracellular ROS level in Cryptococcus neoformans assessed as fold increase in fluorescence intensity measured after 12 hrs by fluorescence microscopic analysis relative to control. In kind it is functional.
The test system of data set [11] is Candida albicans. Nature of the data set: Increase in intracellular ROS level in Candida albicans assessed as fold increase in fluorescence intensity measured after 12 hrs by fluorescence microscopic analysis relative to control. In kind it is functional.

SMILES strings stand for the structures. Activity calls are given as the source filed them. The calls are words filed in the database; no cut-off is given here.

For the compound `C[C@H](C(=O)N(C)CC(O)(Cn1ccnc1)c1ccc(Cl)cc1Cl)c1cccc(C(=O)c2ccccc2)c1` (some centres undefined), the outcome in data set [1], in data set [4], in data set [6], in data set [7], in data set [8] and in [9] was Active. In addition, the Activity entry in data set [2] and in data set [5] was “Non-Toxic” each time. For the same compound, the “fold change (FC)” value in data set [3] is 2.12.
On to `C[C@H](C(=O)N(C)CC(O)(Cn1ccnc1)c1ccc(Cl)cc1)c1ccc(-c2ccccc2)c(F)c1` (some centres undefined), for which the Activity result in data set [2] and in data set [5] was “Non-Toxic” throughout. The “fold change (FC)” value in data set [3] came out at 2.12.
Take `OC(Cn1cncn1)(Cn1cncn1)c1ccc(F)cc1F` [FLUCONAZOLE]: the outcome in [10] and in data set [11] was Active.

Values taken from ChEMBL document CHEMBL5214990, “Novel Aryl Alkamidazole Derivatives as Multifunctional Antifungal Inhibitors: Design, Synthesis, and Biological Evaluation” (J Med Chem, 2022).
